Data taken from ChEMBL document CHEMBL5608195, “Identification and biological evaluation of fused tetrahydroisoquinoline derivatives as Wnt/β-catenin signaling inhibitors to suppress colorectal cancer” (Eur J Med Chem, 2024).
Activity calls are given as the source filed them. The rule behind the calls is not given here.

How the values were obtained:
[1] = Tmax in male ICR (CD-1) mouse at 10 mg/kg, ip measured upto 24 hrs by LC-MS/MS analysis; format: ADME, organism-based; conditions: in vivo
[2] = Toxicity in male BALB/c mouse xenografted with human HCT-116 cells assessed as histological change in heart at 10 to 40 mg/kg, ip by H and E staining based optical microscopic analysis; format: organism-based; conditions: in vivo, dose 10-40 mg/kg
HCT-116 [3] = assay: Antitumor activity against human HCT-116 cells xenografted in male BALB/c mouse assessed as tumor growth inhibition at 40 mg/kg, ip measured every two days for upto 20 days relative to control; format: functional; conditions: HCT-116, 480 h, time <= 20 day, read-out: TGI
HCT-116 [4] = assay: Inhibition of Wnt/beta-catenin signaling pathway in human HCT-116 cells assessed as induction of beta-catenin degradation in presence of MG132 by Western blot analysis; format: cell-based
[5] = Toxicity in male BALB/c mouse xenografted with human HCT-116 cells assessed as effect on serum AST level at 10 to 40 mg/kg, ip by biochemical analysis; format: organism-based; conditions: in vivo, dose 10-40 mg/kg
[6] = AUC (0 to infinity) in male ICR (CD-1) mouse at 10 mg/kg, ip measured upto 24 hrs by LC-MS/MS analysis; format: ADME, organism-based; conditions: in vivo
RKO [7] = assay: Induction of cell cycle arrest in human RKO cells assessed as downregulation of c-Myc protein level by Western blot analysis; format: functional, cell-based
RKO [8] = assay: Induction of cell cycle arrest in human RKO cells assessed as downregulation of CDK1 protein level by Western blot analysis; format: functional, cell-based
[9] = Half life in male ICR (CD-1) mouse at 5 mg/kg, iv measured upto 24 hrs by LC-MS/MS analysis; format: ADME, organism-based; conditions: in vivo
RKO [10] = assay: Induction of cell cycle arrest in human RKO cells assessed as downregulation of Cyclin A2 protein level by Western blot analysis; format: functional, cell-based
[11] = Cmax in male ICR (CD-1) mouse at 10 mg/kg, ip measured upto 24 hrs by LC-MS/MS analysis; format: ADME, organism-based; conditions: in vivo
HCT-116 [12] = assay: Induction of cell cycle arrest in human HCT-116 cells assessed as downregulation of Cyclin D1 protein level by Western blot analysis; format: functional, cell-based
HCT-116 [13] = assay: Antitumor activity against human HCT-116 cells xenografted in male BALB/c mouse assessed as induction of apoptosis by measuring increase cleaved-caspase-3 protein level at 10 to 40 mg/kg, ip by Immunohistochemical staining based analysis; format: functional, organism-based; conditions: dose 10-40 mg/kg
[14] = Toxicity in male BALB/c mouse xenografted with human HCT-116 cells assessed as effect on serum ALP level at 10 to 40 mg/kg, ip by biochemical analysis; format: organism-based; conditions: in vivo, dose 10-40 mg/kg
[15] = Tmax in male ICR (CD-1) mouse at 20 mg/kg, po measured upto 24 hrs by LC-MS/MS analysis; format: ADME, organism-based; conditions: in vivo
[16] = Toxicity in Kunming mouse assessed as drug tolerance at 200 to 400 mg/kg, ip; format: organism-based; conditions: in vivo, dose 200-400 mg/kg
[17] = Toxicity in male BALB/c mouse xenografted with human HCT-116 cells assessed as effect on serum uric acid level at 10 to 40 mg/kg, ip by biochemical analysis; format: organism-based; conditions: in vivo, dose 10-40 mg/kg
HCT-116 [18] = assay: Induction of cell cycle arrest in human HCT-116 cells assessed as downregulation of Cyclin A2 protein level by Western blot analysis; format: functional, cell-based
HCT-116 [19] = assay: Induction of cell cycle arrest in human HCT-116 cells assessed as downregulation of c-Myc protein level by Western blot analysis; format: functional, cell-based
[20] = Cmax in male ICR (CD-1) mouse at 20 mg/kg, po measured upto 24 hrs by LC-MS/MS analysis; format: ADME, organism-based; conditions: in vivo
HCT-116 [21] = assay: Antitumor activity against human HCT-116 cells xenografted in male BALB/c mouse assessed as tumor growth inhibition at 10 mg/kg, ip measured every two days for upto 20 days relative to control; format: functional; conditions: HCT-116, 480 h, time <= 20 day, read-out: TGI
[22] = Toxicity in Kunming mouse assessed as behavioural changes at 200 to 400 mg/kg, ip; format: organism-based; conditions: in vivo, dose 200-400 mg/kg
RKO [23] = assay: Antiproliferative activity against human RKO cells assessed as inhibition of DNA proliferation at 10 uM incubated for 22 hrs by fluorescence based microscopic analysis; format: functional, cell-based
HCT-116 [24] = assay: Antiproliferative activity against human HCT-116 cells assessed as inhibition of DNA proliferation at 10 uM incubated for 22 hrs by fluorescence based microscopic analysis; format: functional, cell-based
[25] = Half life in male ICR (CD-1) mouse at 10 mg/kg, ip measured upto 24 hrs by LC-MS/MS analysis; format: ADME, organism-based; conditions: in vivo
[26] = AUC (0 to infinity) in male ICR (CD-1) mouse at 20 mg/kg, po measured upto 24 hrs by LC-MS/MS analysis; format: ADME, organism-based; conditions: in vivo
[27] = Toxicity in male BALB/c mouse xenografted with human HCT-116 cells assessed as effect on serum ALT level at 10 to 40 mg/kg, ip by biochemical analysis; format: organism-based; conditions: in vivo, dose 10-40 mg/kg
RKO [28] = assay: Inhibition of Wnt/beta-catenin signaling pathway in human RKO cells assessed as induction of beta-catenin degradation pretreated with cycloheximide followed by compound addition by Western blot analysis; format: cell-based; conditions: time <= 6.0 hrs, TDE = time-dependent effect
[29] = Toxicity in male BALB/c mouse xenografted with human HCT-116 cells assessed as effect on body weight at 10 to 40 mg/kg, ip measured every two days for upto 20 days; format: organism-based; conditions: in vivo, 480 h, dose 10-40 mg/kg, time < 20 day
[30] = Toxicity in male BALB/c mouse xenografted with human HCT-116 cells assessed as histological change in lung at 10 to 40 mg/kg, ip by H and E staining based optical microscopic analysis; format: organism-based; conditions: in vivo, dose 10-40 mg/kg
HCT-116 [31] = assay: Inhibition of colony formation in human HCT-116 cells incubated for 24 hrs by crystal violet staining based analysis; format: functional, cell-based; conditions: dose 6-10 µM
HCT-116 [32] = assay: Induction of cell cycle arrest in human HCT-116 cells assessed as downregulation of CDK1 protein level by Western blot analysis; format: functional, cell-based
[33] = Binding affinity to recombinant N-terminal GST-tagged human HSP90 (1 to 224 residues) extracted from Escherichia coli BL21 (DE3) cells assessed as dissociation constant by surface plasmon resonance assay
[34] = AUC (0 to infinity) in male ICR (CD-1) mouse at 5 mg/kg, iv measured upto 24 hrs by LC-MS/MS analysis; format: ADME, organism-based; conditions: in vivo
RKO [35] = assay: Inhibition of Wnt/beta-catenin signaling pathway in human RKO cells assessed as downregulation of beta-catenin expression incubated for 24 hrs by qRT-PCR analysis; format: cell-based; conditions: dose <= 10.0 µM
Homo sapiens = species on record: Homo sapiens; assay: Binding affinity to recombinant N-terminal GST-tagged human HSP90 (1 to 224 residues) extracted from Escherichia coli BL21 (DE3) cells at 200 uM in presence of biotin probe 1 by pulldown analysis
[36] = Oral bioavailability in male ICR (CD-1) mouse at 20 mg/kg measured upto 24 hrs by LC-MS/MS analysis; format: ADME, organism-based; conditions: in vivo
HCT-116 [37] = assay: Induction of cell cycle arrest in human HCT-116 cells assessed as downregulation of Cyclin B1 protein level by Western blot analysis; format: functional, cell-based

Tmax [1]: 15 min
AUC(0-inf) [6]: 2900 ng·h/mL
half-life [9]: 85.2 min
Cmax [11]: 1450 ng/mL
Tmax [15]: 19.8 min
Cmax [20]: 832 ng/mL
half-life [25]: 213 min
AUC(0-inf) [26]: 2720 ng·h/mL
AUC(0-inf) [34]: 1500 ng·h/mL
Activity (Homo sapiens): Active
bioavailability [36]: 40%
SMILES: CC12c3ccc(Cl)cc3CCN1CCc1c2[nH]c2ccc(Cl)cc12 (stereo not drawn)
Activity [2]: Non-Toxic
inhibition in vivo at 40 mg/kg (HCT-116 [3]): 71.6%
inhibition (HCT-116 [4]): inactive
Activity [5]: Non-Toxic
Activity (RKO [7]): Dose-Dependent Effect
Activity (RKO [8]): Dose-Dependent Effect
Activity (RKO [10]): Dose-Dependent Effect
Activity (HCT-116 [12]): Dose-Dependent Effect
Activity (HCT-116 [13]): Active
Activity [14]: Non-Toxic
Activity [16]: Non-Toxic
Activity [17]: Non-Toxic
Activity (HCT-116 [18]): Dose-Dependent Effect
Activity (HCT-116 [19]): Dose-Dependent Effect
inhibition in vivo at 10 mg/kg (HCT-116 [21]): 57.4%
Activity [22]: Non-Toxic
Activity (RKO [23]): Active
Activity (HCT-116 [24]): Active
Activity [27]: Non-Toxic
inhibition (RKO [28]): Tde
Activity [29]: Non-Toxic
Activity [30]: Non-Toxic
inhibition (HCT-116 [31]): Dose-Dependent Effect
Activity (HCT-116 [32]): Dose-Dependent Effect
Kd [33]: 12.2 µM
inhibition (RKO [35]): Dose-Dependent Effect
Activity (HCT-116 [37]): Dose-Dependent Effect
